Reference: patent US10457707B2, “Substituted urea depsipeptide analogs as activators of the CLPP endopeptidase” (priority 2015, dated 2019)
Converted amounts (≈) assume the structure as drawn. Where two headings read alike, the source gives them in different places. *1 amine or outer side, *2 acyl side, *3 side chain or, on linkers, in order; H or OH if unused. Where a SMILES comes first, the peptide text is derived from it. Bridges are numbered along the chain shown (N, C = ends). [ ]: non-standard residue; d: D form. The star is where a group is joined. ξ: configuration not given here. Phe(3,5-F2) = N[C@@H](Cc1cc(F)cc(F)c1)C(=O)O; NH(4-OCF3-phenyl) = FC(F)(F)Oc1ccc(N*)cc1; ξPro(4S-Me) = C[C@@H]1CNC(C(=O)O)C1; ξPro(4R-Me) = C[C@H]1CNC(C(=O)O)C1; Heptenoyl(2E) = CCCC/C=C/C(=O)*; NH(4-Me-phenyl) = Cc1ccc(N*)cc1; aThr = C[C@H](O)[C@H](N)C(=O)O; X5 = O=C(C1COCCN1[*:1])[*:2]; Pip = O=C(O)[C@@H]1CCCCN1; NMeA = CN[C@@H](C)C(=O)O; ξPip = O=C(O)C1CCCCN1; CO = O=C([*:1])[*:2]; ξP = O=C(O)C1CCCN1

Legend:
Format in all cases: cell-based
[1] = tested on: Staphylococcus aureus, USA 300; test: Minimal inhibitory concentration assay; conditions: USA300, read-out: Minimal Inhibitory Concentrations S. aureus USA 300
Procedure, shortened: (§1)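 CLSI broth microdilution; 2-fold series from 200 μM final; inoculum ~10^5 cfu/mL; 37 °C, aerobic, overnight; visual MIC = lowest conc. without growth. The ClpP-inactivated USA 300 strain is the comparator for ClpP-dependent killing.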

[2] = tested on: Staphylococcus aureus, USA 300 wherein ClpP is inactivated; test: Minimal inhibitory concentration assay
Procedure, shortened: as §1

[3] = tested on: Enterococcus faecalis, ATCC 33186; test: Minimal inhibitory concentration assay (microbroth dilution); conditions: Enterococcus faecalis, ATCC33186; read-out: Minimal Inhibitory Concentrations E. faecalis ATCC 33186
Procedure, shortened: as §1

[4] = tested on: Staphylococcus aureus, ATCC 29213; test: as above; conditions: ATCC29213, read-out: Minimal Inhibitory Concentrations S. aureus ATCC 29213
Procedure, shortened: as §1

[5] = tested on: Staphylococcus aureus, NRS70; test: as above
Procedure, shortened: as §1

[6] = tested on: Bacillus subtilis, ATCC 23857; test: as above
Procedure, shortened: as §1

[7] = tested on: Vero (kidney epithelial cells; ATCC CCL-81); test: Cytotoxicity assay (CellTiter-Glo cell viability, 72 hours)
Method: Cytotoxicity was determined by determining the effect of compounds on cell viability. Vero (kidney epithelial cells; ATCC CCL-81) monolayers were trypsinized and 5000 cells/well were seeded (10-15% confluency) into white-wall, flat bottom 96 well microwell plates (Corning) using enriched Dulbecco's Modified Eagle's Medium (Hyclone:DMEM/High Glucose) containing 10% Fetal Bovine Serum (ATCC-30-2020). Plates were incubated overnight at 37° C. in the presence of 5% CO2. Drug-free media was then replaced with media containing serial dilutions of test compound or DMSO carrier. After an additional 72 hours of incubation, viability was indirectly measured using the CellTiter-Glo® Luminescent Cell Viability (Promega) assay. Assay plates were read at peak emission wavelength of 560 nm using a EnVision® Multilabel Plate Reader (Perkin Elmer) or PHERAstar FS Multilabel reader (BMG, Cary, N.C.). […] USA, www.graphpad.com]. For each experiment, compounds were tested in duplicate. IC50 values presented are the range of two biologically independent experiments.

[8] = tested on: Streptococcus pyogenes, ATCC 700294; test: Minimal inhibitory concentration assay (microbroth dilution)
Procedure, shortened: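 CLSI broth microdilution: two-fold serial compound dilutions in appropriate broth, inoculated and incubated aerobically overnight at 37° C. MIC read visually as lowest concentration preventing bacterial growth.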

[9] = tested on: Streptococcus pneumoniae, R6; test: Minimal inhibitory concentration assay; conditions: read-out: Minimal Inhibitory Concentrations S. pneumoniae R6
Procedure, shortened: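 Microbroth dilution with two-fold serial compound dilutions in broth, incubated aerobically overnight at 37° C. MIC taken as the lowest concentration preventing bacterial growth.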

[10] = Staphylococcus aureus, NRS70; read-out: Minimal Inhibitory Concentrations S. aureus NRS70
[11] = Bacillus subtilis, ATCC23857; read-out: Minimal Inhibitory Concentrations B. subtilis ATCC 23857
[12] = Vero cells, 72 hours, growth inhibition, read-out: Cytotoxicity IC50
[13] = Streptococcus pyogenes, ATCC700294; read-out: Minimal Inhibitory Concentrations S. pyogenes ATCC 700294
[14] = Staphylococcus aureus, NRS70, read-out: Minimal Inhibitory Concentrations S. aureus NRS70
[15] = Bacillus subtilis, ATCC23857, read-out: Minimal Inhibitory Concentrations B. subtilis ATCC 23857
[16] = Streptococcus pyogenes, ATCC700294, read-out: Minimal Inhibitory Concentrations S. pyogenes ATCC 700294

CCCC/C=C/C(=O)N[C@@H](Cc1cc(F)cc(F)c1)C(=O)N[C@@H]1C(=O)N2CCC[C@H]2C(=O)N2CCCC[C@H]2C(=O)N[C@@H](C)C(=O)N2CCC[C@H]2C(=O)O[C@H]1C [ADEP 2719, reference compound] ({Heptenoyl(2E)}-[Phe(3,5-F2)][aThr]P[Pip]AP; ester 2-C)
MIC [1]: < 0.19 µM | Minimal Inhibitory Concentrations S. aureus USA 300 ΔClpP [2]: 500 µM | MIC [3]: 0.08 µM (≈ 0.0617 µg/mL) | MIC [4]: 0.07 µM (≈ 0.054 µg/mL) | MIC [5, 10]: 0.08 µM (≈ 0.0617 µg/mL) | MIC [6, 11]: < 0.01 µM | IC50 [7, 12]: 37.7 ± 3.4 µM | MIC [8, 13]: < 0.2 µM

Cc1ccc(NC(=O)N[C@@H](Cc2cc(F)cc(F)c2)C(=O)N[C@H]2COC(=O)[C@@H]3C[C@@H](C)CN3C(=O)[C@H](C)NC(=O)[C@@H]3CCCCN3C(=O)[C@@H]3CCCN3C2=O)cc1 [Compound 24, (S)-3-(3,5-difluorophenyl)-N-((2R,6S,8aS,14aS,20S,23aS)-2,6-dimethyl-5,8,14,19,23-pentaoxooctadecahydro-1H,5H,14H,19H-pyrido[2,1-i]dipyrrolo[2,1-c:2′,1′-l][1]oxa[4,7,10,13]tetraazacyclohexadecin-20-yl)-2-(3-(p-tolyl)ureido)propanamide]
MIC [4]: 0.5 µM (≈ 0.397 µg/mL) | MIC [5, 14]: 0.5 µM (≈ 0.397 µg/mL) | MIC [6, 15]: 2.2 µM (≈ 1.75 µg/mL) | IC50 [7, 12]: 93.8 ± 4.8 µM | MIC [8, 16]: 0.5 µM (≈ 0.397 µg/mL)

Cc1ccc(NC(=O)N[C@@H](Cc2cc(F)cc(F)c2)C(=O)N[C@@H]2C(=O)N3CCCC3C(=O)N(C)[C@@H](C)C(=O)N[C@@H](C)C(=O)N3CCCC3C(=O)O[C@H]2C)cc1 (stereo partly drawn) [Compound 25, (2S)-3-(3,5-difluorophenyl)-N-((6S,9S,11aS,17S,18S)-6,9,10,18-tetramethyl-5,8,11,16,20-pentaoxohexadecahydro-1H,5H,16H-dipyrrolo[2,1-c:2′,1′-l][1]oxa[4,7,10,13]tetraazacyclohexadecin-17-yl)-2-(3-(p-tolyl)ureido)propanamide] ({NH(4-Me-phenyl)-CO}-[Phe(3,5-F2)][aThr][ξP][NMeA]A[ξP]; ester 2-C)
MIC [9]: 0.254 µM (≈ 0.195 µg/mL) | MIC [1]: 0.78 µM (≈ 0.599 µg/mL) | Minimal Inhibitory Concentrations S. aureus USA 300 ΔClpP [2]: 200 µM | MIC [4]: 0.78 µM (≈ 0.599 µg/mL) | MIC [5, 14]: 0.78 µM (≈ 0.599 µg/mL) | MIC [6, 15]: 0.02 µM (≈ 0.0154 µg/mL) | IC50 [7, 12]: 10.8 ± 1 µM | MIC [8, 16]: 1 µM (≈ 0.768 µg/mL)

Cc1ccc(NC(=O)N[C@@H](Cc2cc(F)cc(F)c2)C(=O)N[C@@H]2C(=O)N3CCCC3C(=O)N(C)[C@@H](C)C(=O)N[C@@H](C)C(=O)N3C[C@@H](C)CC3C(=O)O[C@H]2C)cc1 (stereo partly drawn) [Compound 26, (2S)-3-(3,5-difluorophenyl)-N-((2S,6S,9S,11aS,17S,18S)-2,6,9,10,18-pentamethyl-5,8,11,16,20-pentaoxohexadecahydro-1H,5H,16H-dipyrrolo[2,1-c:2′,1′-l][1]oxa[4,7,10,13]tetraazacyclohexadecin-17-yl)-2-(3-(p-tolyl)ureido)propanamide] ({NH(4-Me-phenyl)-CO}-[Phe(3,5-F2)][aThr][ξP][NMeA]A[ξPro(4S-Me)]; ester 2-C)
MIC [9]: 0.125 µM (≈ 0.0977 µg/mL) | MIC [1]: 0.39 µM (≈ 0.305 µg/mL) | Minimal Inhibitory Concentrations S. aureus USA 300 ΔClpP [2]: 200 µM | MIC [4]: 0.2 µM (≈ 0.156 µg/mL) | MIC [5, 14]: 0.2 µM (≈ 0.156 µg/mL) | MIC [6, 15]: 0.03 µM (≈ 0.0235 µg/mL) | IC50 [7, 12]: 40.5 ± 3.8 µM | MIC [8, 16]: 0.5 µM (≈ 0.391 µg/mL)

Cc1ccc(NC(=O)N[C@@H](Cc2cc(F)cc(F)c2)C(=O)N[C@@H]2C(=O)N3CCCC3C(=O)N3CCOCC3C(=O)N[C@@H](C)C(=O)N3C[C@@H](C)CC3C(=O)O[C@H]2C)cc1 (stereo partly drawn) [Compound 33, (S)-3-(3,5-difluorophenyl)-2-(3-(p-tolyl)ureido)-N-((6aS,12S,13S,15aS,17S,21S,23aS)-13,17,21-trimethyl-6,11,15,20,23-pentaoxooctadecahydro-6H,11H,15H-[1,4]oxazino[3,4-i]dipyrrolo[2,1-c:2′,1′-l][1]oxa[4,7,10,13]tetraazacyclohexadecin-12-yl)propanamide] ({NH(4-Me-phenyl)-CO}-[Phe(3,5-F2)][aThr][ξP][X5]A[ξPro(4S-Me)]; ester 2-C)
MIC [9]: 0.098 µM (≈ 0.0794 µg/mL) | MIC [1]: 0.2 µM (≈ 0.162 µg/mL) | Minimal Inhibitory Concentrations S. aureus USA 300 ΔClpP [2]: 200 µM | MIC [4]: 0.2 µM (≈ 0.162 µg/mL) | MIC [5, 14]: 0.1 µM (≈ 0.081 µg/mL) | MIC [6, 15]: 0.2 µM (≈ 0.162 µg/mL) | IC50 [7, 12]: 41 ± 4.3 µM | MIC [8, 16]: 0.39 µM (≈ 0.316 µg/mL)

C[C@H]1CC2C(=O)O[C@@H](C)[C@H](NC(=O)[C@H](Cc3cc(F)cc(F)c3)NC(=O)Nc3ccc(OC(F)(F)F)cc3)C(=O)N3CCCC3C(=O)N3CCOCC3C(=O)N[C@@H](C)C(=O)N2C1 (stereo partly drawn) [Compound 34, (S)-3-(3,5-difluorophenyl)-2-(3-(4-(trifluoromethoxy)phenyl)ureido)-N-((6aS,12S,13S,15aS,17S,21S,23aS)-13,17,21-trimethyl-6,11,15,20,23-pentaoxooctadecahydro-6H,11H,15H-[1,4]oxazino[3,4-i]dipyrrolo[2,1-c:2′,1′-l][1]oxa[4,7,10,13]tetraazacyclohexadecin-12-yl)propanamide] ({NH(4-OCF3-phenyl)-CO}-[Phe(3,5-F2)][aThr][ξP][X5]A[ξPro(4S-Me)]; ester 2-C)
MIC [9]: 0.049 µM (≈ 0.0431 µg/mL) | MIC [1]: 0.05 µM (≈ 0.044 µg/mL) | Minimal Inhibitory Concentrations S. aureus USA 300 ΔClpP [2]: 50 µM | MIC [4]: 0.05 µM (≈ 0.044 µg/mL) | MIC [5, 10]: 0.02 µM (≈ 0.0176 µg/mL) | MIC [6, 11]: 0.02 µM (≈ 0.0176 µg/mL) | IC50 ([7]; African green monkey, 72 h): 26 ± 2.6 µM | MIC [8, 13]: 0.1 µM (≈ 0.088 µg/mL)

Cc1ccc(NC(=O)N[C@@H](Cc2cc(F)cc(F)c2)C(=O)N[C@@H]2C(=O)N3CCCC3C(=O)N3CCCCC3C(=O)N[C@@H](C)C(=O)N3C[C@H](C)CC3C(=O)O[C@H]2C)cc1 (stereo partly drawn) [Compound 39, (S)-3-(3,5-difluorophenyl)-2-(3-(p-tolyl)ureido)-N-((2R,6S,8aS,14aS,20S,21S,23aS)-2,6,21-trimethyl-5,8,14,19,23-pentaoxooctadecahydro-1H,5H,14H,19H-pyrido[2,1-i]dipyrrolo[2,1-c:2′,1′-l][1]oxa[4,7,10,13]tetraazacyclohexadecin-20-yl)propanamide] ({NH(4-Me-phenyl)-CO}-[Phe(3,5-F2)][aThr][ξP][ξPip]A[ξPro(4R-Me)]; ester 2-C)
MIC [9]: 0.05 µM (≈ 0.0404 µg/mL) | MIC [1]: 0.05 µM (≈ 0.0404 µg/mL) | Minimal Inhibitory Concentrations S. aureus USA 300 ΔClpP [2]: 100 µM | MIC [4]: 0.05 µM (≈ 0.0404 µg/mL) | MIC [5, 14]: 0.05 µM (≈ 0.0404 µg/mL) | MIC [6, 15]: 0.02 µM (≈ 0.0162 µg/mL) | IC50 [7, 12]: 40 ± 4.1 µM | MIC [8, 16]: 0.2 µM (≈ 0.162 µg/mL)

Cc1ccc(NC(=O)N[C@@H](Cc2cc(F)cc(F)c2)C(=O)N[C@H]2COC(=O)C3C[C@H](C)CN3C(=O)[C@H](C)NC(=O)C3CCCCN3C(=O)C3CCCN3C2=O)cc1 (stereo partly drawn) [Compound 45, (S)-3-(3,5-difluorophenyl)-N-((2S,6S,8aS,14aS,20S,23aS)-2,6-dimethyl-5,8,14,19,23-pentaoxooctadecahydro-1H,5H,14H,19H-pyrido[2,1-i]dipyrrolo[2,1-c:2′,1′-l][1]oxa[4,7,10,13]tetraazacyclohexadecin-20-yl)-2-(3-(p-tolyl)ureido)propanamide]
MIC [9]: 0.1 µM (≈ 0.0794 µg/mL) | MIC [1]: 0.4 µM (≈ 0.318 µg/mL) | Minimal Inhibitory Concentrations S. aureus USA 300 ΔClpP [2]: 100 µM | MIC [4]: 0.4 µM (≈ 0.318 µg/mL) | MIC [5, 14]: 0.2 to 0.4 µM (≈ 0.159 to 0.318 µg/mL) | IC50 [7, 12]: 56.8 ± 6.7 µM | MIC [8, 16]: 0.4 µM (≈ 0.318 µg/mL)
